In patent publication US8937167B2 (Washington University, priority 2009, dated 2015):
Read-outs that look alike come from different tables or passages of the source.

Columns and labels:
[1] = tested on: UTI89 biofilm; experiment: UTI89 type 1 dependent biofilm formation (inhibition/prevention) assay on PVC, crystal violet; format: cell-based, uropathogenic E. coli UTI89
Method in brief: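 Prevention: UTI89 grown in LB in PVC wells at 23° C with mannoside at varying concentrations for 48 h, then crystal violet stained and quantified. Disruption: 24 h UTI89 biofilm, mannoside added, grown 16 h more, then crystal violet.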

[2] = tested on: PBC-1; experiment: Mouse bladder infection with TMP-SMZ resistant strain, with or without TMP-SMZ in drinking water; format: in vivo, E. coli (UPEC); host C3H/HeN mouse; conditions: 6 hpi, mannoside IP 30 min prior and/or TMP-SMZ 3 days in drinking water
[3] = target: FimH (Escherichia coli, UniProt Q1R2J4); conditions: Examples 30-36 numbering;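 note: hemagglutination inhibition of guinea pig erythrocytes agglutinated by type 1 piliated uropathogenic E. coli via FimH mannose binding, quantified through serial dilutions of compound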
[4] = target: T1, FimH lectin domain (Escherichia coli, UniProt P08191); experiment: biochemical; format: binding, E. coli
T1 construct: made by biotinylating FimH lectin domain^25 at a 1:1 molar ratio with NHS-PEO4-Biotin
Method: Samples or buffer (200 μL per well) were dispensed into 96-well microtiter plates (Greiner Bio-One, Monroe N.C.) and maintained at 30° C. with 1000 RPM shaking. Pre-manufactured pins for individual assays were made by biotinylating FimH lectin domain^25 at a 1:1 molar ratio with NHS-PEO4-Biotin (Thermo Fisher, Rockford Ill.), diluting it to 50 μg/ml in 20 mM HEPES pH 7.5, 150 mM NaCl (HBS), immobilizing it on high-binding streptavidin-coated biosensor tips (Super Streptavidin, ForteBio, Inc., Menlo Park, Calif.) for 10 minutes at 30° C., blocking the pins with 10 μg/ml biocytin for 2 minutes, washing in HBS for 1 hour, and rinsing in 15% sucrose in HBS. Pins were then air dried for 30 minutes and stored in their original packaging with a dessicant packet. Assays were performed by re-wetting premade pins with HBS for 15 minutes, then storing them in fresh HBS until use. […] Each experimental pin was referenced to a biocytin-blocked pin to control for instrument drift and a second biocytin-blocked pin that was passed through a duplicate experiment in the same 96-well plate to control for nonspecific binding of the compound to the pin. Kinetics data and affinity constants were generated automatically by the global fitting protocol in ForteBio Data Analysis version 6.3.

Structure (SMILES)	IC50 ([1]; read-out: biofilm inhibition IC50)	bladder bacterial CFUs [2]	IC50 ([1]; Escherichia coli, read-out: Biofilm Prevention IC50)	HAI Titer EC>90 ([3]; Table 17)	HAI Titer EC>90 ([3]; Table 20)	Kd, qualitative [4]	Kd ([4]; Table 20, read-out: Octet Kd)
CNC(=O)c1cc(C(=O)NC)cc(-c2ccc(O[C@H]3O[C@H](CO)[C@@H](O)[C@H](O)[C@@H]3O)cc2)c1 [ZFH-2056]	740 nM	significant drop in bacterial load					
COC(=O)c1cccc(-c2ccc(O[C@H]3O[C@H](CO)[C@@H](O)[C@H](O)[C@@H]3O)cc2)c1 [Compound 1, phenyl mannoside, reference compound]			940 nM	1.00 µM	1.000 µM	picomolar range	0.08 nM
